Assay results: ChEMBL document CHEMBL3885861, “Open TG-GATES”

Organism: Rattus norvegicus
Test: Open TG-GATES - Regimen: Single
Type: toxicity, organism-based, Sprague-Dawley
Design: regimen Single, gender Male, age 6 weeks
Details: in vivo, po, 300 mg/kg, route gavage, dose level Low; for APTT / Bas / Eos / Fbg / Hb / Ht / Lym / MCH / MCHC / MCV / Mono / Neu / PT / Plat / RBC / Ret / WBC: tissue Blood; for KIDNEY_L / KIDNEY_R / KIDNEY_TOTAL: tissue Kidney; for LIVER: tissue Liver; for A/G / ALP / ALT / AST / BUN / CRE / Ca / Cl / DBIL / GLC / IP / K / LDH / Na / PL / RALB / TBIL / TC / TG / TP / gamma-GTP: tissue Plasma

CCOc1ccc(NC(=O)CC(C)O)cc1 (configuration not stated) [BUCETIN]
TERMINAL_BW (3 h): 213.6 g | APTT (3 h): 15.8 s | Bas (3 h): 0% | Eos (3 h): 0.8% | Fbg (3 h): 292.8 mg/dL | Hb (3 h): 13 g/dL | Ht (3 h): 39% | Lym (3 h): 77.8% | MCH (3 h): 21.4 pg | MCHC (3 h): 33.3% | MCV (3 h): 64.3 fL | Mono (3 h): 2.6% | Neu (3 h): 18.2% | PT (3 h): 13.7 s | Plat (3 h): 117.1 x10_4/uL | RBC (3 h): 608.2 x10_4/ul | Ret (3 h): 8.5% | WBC (3 h): 68.4 x10_2/uL | KIDNEY_L (3 h): 1 g | KIDNEY_R (3 h): 1 g | KIDNEY_TOTAL (3 h): 1.9 g | LIVER (3 h): 9.6 g | A/G (3 h): 0.9 | ALP (3 h): 1395.4 IU/L | ALT (3 h): 33.2 IU/L | AST (3 h): 66.8 IU/L | BUN (3 h): 9.4 mg/dL | CRE (3 h): 0.2 mg/dL | Ca (3 h): 10.7 mg/dL | Cl (3 h): 104.8 meq/L | DBIL (3 h): 0.026 mg/dL | GLC (3 h): 181 mg/dL | IP (3 h): 9.1 mg/dL | K (3 h): 4.2 meq/L | LDH (3 h): 73.8 IU/L | Na (3 h): 140.6 meq/L | PL (3 h): 155.2 mg/dL | RALB (3 h): 2.5 g/dL | TBIL (3 h): 0.052 mg/dL | TC (3 h): 84.4 mg/dL | TG (3 h): 78 mg/dL | TP (3 h): 5.4 g/dL | gamma-GTP (3 h): 1.2 IU/L | TERMINAL_BW (6 h): 209.9 g | APTT (6 h): 15.2 s | Bas (6 h): 0% | Eos (6 h): 1% | Fbg (6 h): 292.4 mg/dL | Hb (6 h): 13.4 g/dL | Ht (6 h): 40.3% | Lym (6 h): 77% | MCH (6 h): 20.7 pg | MCHC (6 h): 33.4% | MCV (6 h): 62 fL | Mono (6 h): 2.6% | Neu (6 h): 19% | PT (6 h): 13.6 s | Plat (6 h): 112.6 x10_4/uL | RBC (6 h): 649.8 x10_4/ul | Ret (6 h): 7.8% | WBC (6 h): 80.5 x10_2/uL | KIDNEY_L (6 h): 0.9 g | KIDNEY_R (6 h): 0.9 g | KIDNEY_TOTAL (6 h): 1.8 g | LIVER (6 h): 8.7 g | A/G (6 h): 0.9 | ALP (6 h): 1309.2 IU/L | ALT (6 h): 29.8 IU/L | AST (6 h): 65.8 IU/L | BUN (6 h): 8 mg/dL | CRE (6 h): 0.2 mg/dL | Ca (6 h): 10.6 mg/dL | Cl (6 h): 105 meq/L | DBIL (6 h): 0.026 mg/dL | GLC (6 h): 186 mg/dL | IP (6 h): 10.5 mg/dL | K (6 h): 4.3 meq/L | LDH (6 h): 74.4 IU/L | Na (6 h): 141.8 meq/L | PL (6 h): 139.8 mg/dL | RALB (6 h): 2.5 g/dL | TBIL (6 h): 0.058 mg/dL | TC (6 h): 77 mg/dL | TG (6 h): 44.8 mg/dL | TP (6 h): 5.3 g/dL | gamma-GTP (6 h): 1.2 IU/L | TERMINAL_BW (9 h): 206.6 g | APTT (9 h): 18.5 s | Bas (9 h): 0% | Eos (9 h): 1% | Fbg (9 h): 291.8 mg/dL | Hb (9 h): 13.1 g/dL | Ht (9 h): 39.5% | Lym (9 h): 77.2% | MCH (9 h): 20.9 pg | MCHC (9 h): 33.3% | MCV (9 h): 62.8 fL | Mono (9 h): 2% | Neu (9 h): 19.6% | PT (9 h): 14.3 s | Plat (9 h): 110.2 x10_4/uL | RBC (9 h): 628.8 x10_4/ul | Ret (9 h): 8.1% | WBC (9 h): 59.9 x10_2/uL | KIDNEY_L (9 h): 0.9 g | KIDNEY_R (9 h): 0.9 g | KIDNEY_TOTAL (9 h): 1.9 g | LIVER (9 h): 8.1 g | A/G (9 h): 0.9 | ALP (9 h): 1396.8 IU/L | ALT (9 h): 31 IU/L | AST (9 h): 68.4 IU/L | BUN (9 h): 8.4 mg/dL | CRE (9 h): 0.2 mg/dL | Ca (9 h): 10.4 mg/dL | Cl (9 h): 107.2 meq/L | DBIL (9 h): 0.028 mg/dL | GLC (9 h): 182 mg/dL | IP (9 h): 10.3 mg/dL | K (9 h): 4.3 meq/L | LDH (9 h): 68.6 IU/L | Na (9 h): 142.8 meq/L | PL (9 h): 136.8 mg/dL | RALB (9 h): 2.5 g/dL | TBIL (9 h): 0.062 mg/dL | TC (9 h): 77.2 mg/dL | TG (9 h): 29.2 mg/dL | TP (9 h): 5.4 g/dL | gamma-GTP (9 h): 1.2 IU/L | TERMINAL_BW (24 h): 223.3 g | APTT (24 h): 19.1 s | Bas (24 h): 0% | Eos (24 h): 1% | Fbg (24 h): 303 mg/dL | Hb (24 h): 13.3 g/dL | Ht (24 h): 40% | Lym (24 h): 76.8% | MCH (24 h): 20.9 pg | MCHC (24 h): 33.3% | MCV (24 h): 62.9 fL | Mono (24 h): 3.4% | Neu (24 h): 18.4% | PT (24 h): 14.2 s | Plat (24 h): 121.5 x10_4/uL | RBC (24 h): 636.4 x10_4/ul | Ret (24 h): 7.7% | WBC (24 h): 109.1 x10_2/uL | KIDNEY_L (24 h): 1 g | KIDNEY_R (24 h): 1 g | KIDNEY_TOTAL (24 h): 1.9 g | LIVER (24 h): 10.8 g | A/G (24 h): 0.9 | ALP (24 h): 1683.6 IU/L | ALT (24 h): 38.8 IU/L | AST (24 h): 67 IU/L | BUN (24 h): 15.4 mg/dL | CRE (24 h): 0.2 mg/dL | Ca (24 h): 11.1 mg/dL | Cl (24 h): 104.8 meq/L | DBIL (24 h): 0.02 mg/dL | GLC (24 h): 176.6 mg/dL | IP (24 h): 7.7 mg/dL | K (24 h): 4.1 meq/L | LDH (24 h): 62.6 IU/L | Na (24 h): 143.8 meq/L | PL (24 h): 171.2 mg/dL | RALB (24 h): 2.7 g/dL | TBIL (24 h): 0.05 mg/dL | TC (24 h): 89.2 mg/dL | TG (24 h): 112.8 mg/dL | TP (24 h): 5.7 g/dL | gamma-GTP (24 h): 1 IU/L
